The source of these data is US20020137929A1, “1 - (3-heterocyclylphenyl) isothiourea, -isourea, -guanidine and -amidine herbicidal agents” (Intellectual Property Department, BASF Aktiengesellschaft, priority 1998, published 2002).

In assay [1] the test system is CHEAL (Lambsquarters, Common). Description: Postemergence herbicidal evaluation. As to conditions: for CHEAL herbicidal rating / Herbicidal rating CHEAL: postemergence. In kind it is in vivo, Chenopodium album. The method, boiled down:
(§1)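 Each compound, dispersed in an acetone/water mix (50/50) carrying 0.5% TWEEN 20, is nozzle-sprayed at 40 psi on approximately two-week-old seedlings at about 0.0156–0.500 kg/ha. Plants are assessed 4–5 weeks afterward on a 0–9 scale relative to control; duplicate tests are averaged.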

For a further assay, the system named is MOOVA (Monochoria). In words: Postemergence weed control under flooded paddy conditions. The assay is classed as in vivo, Monochoria vaginalis. Particulars: postemergence weeds. The procedure, abridged: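 With weeds 3 to 5 cm tall and rice at the 1.5 to 2.5 leaf stage, containers were flooded and water held 1.5 to 3 cm above soil. Compounds in 50/50 v/v aqueous/acetone went into the flood water at about 0.0313 to 0.500 kg/ha a.i. Effects were visually rated 0–9 against controls after three to four weeks in the greenhouse.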

The subject of assay [2] is CHEAL (Lambsquarters, Common). In words: Preemergence herbicidal evaluation. In kind it is in vivo, Chenopodium album. As to conditions: rated 4-5 weeks after treatment; for CHEAL rating: preemergence, 0-9 scale. The procedure, abridged:
(§2)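 Seeds were planted in potting soil in cups, then sprayed preemergence with the test compound in aqueous acetone at about 0.0156 to 0.500 kg per hectare. Cups were kept under greenhouse conditions and visually rated 4–5 weeks after treatment on a 0–9 scale against an untreated control.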

The next assay concerns CASOB (Sicklepod). Description: Postemergence herbicidal evaluation. The assay is classed as in vivo, Cassia obtusifolia. As to conditions: for CASOB herbicidal rating / Herbicidal rating CASOB: postemergence. The procedure, abridged: as §1
A further assay deals with ORYSAT (Rice, Tebonnet). Description: Preemergence herbicidal evaluation. Particulars: rated 4-5 weeks after treatment; for ORYSAT rating: preemergence, 0-9 scale. The assay is classed as in vivo, Oryza sativa, (L.) Tebonnet. The procedure, abridged:
as §2

Assay [3] deals with TRZAWR (Wheat, Winter, cv Riband). In words: Postemergence herbicidal evaluation. The assay is classed as in vivo, Triticum aestivum. Particulars: for TRZAWR herbicidal rating / Herbicidal rating TRZAWR: postemergence. The procedure, abridged:
as §1

Where [4] appears, read: Rate 0.0313 kg/ha, rated 3 to 4 weeks after treatment.
[5] abbreviates: Rate 0.0625 kg/ha, rated 3 to 4 weeks after treatment.
Setting [6] is: Rate 0.1250 kg/ha, rated 3 to 4 weeks after treatment.
The mark [7] stands for this setting: Rate 0.2500 kg/ha, rated 3 to 4 weeks after treatment.
Setting [8] is: rate 0.0313 kg/ha, 3-4 weeks after treatment.
[9] abbreviates: rate 0.0625 kg/ha, 3-4 weeks after treatment.
The mark [10] stands for this setting: rate 0.1250 kg/ha, 3-4 weeks after treatment.
[11] abbreviates: rate 0.2500 kg/ha, 3-4 weeks after treatment.

Regarding `C=CCN1C(=O)C(CC(=O)NC)SC1=Nc1cc(-n2c(=O)cc(C(F)(F)F)n(C)c2=O)c(F)cc1Cl` (stereo not shown) [Compound 84, 3-Allyl-2-{{2-chloro-5-[3,6-dihydro-3-methyl-2,6-dioxo-4-(trifluoromethyl)-1(2H)-pyrimidinyl]-4-fluorophenyl}imino}-N-methyl-4-oxo-5-thiazolidineacetamide], the CHEAL herbicidal rating in assay [1] (rate 0.0156 kg/ha) was determined as 6.0; in assay [1] (rate 0.0313 kg/ha), 7.0; in assay [1] (rate 0.0625 kg/ha), 9.0; in assay [1] (rate 0.1250 kg/ha), 9.0. For the same molecule, the “Herbicidal rating MOOVA” value with MOOVA (Monochoria) (setting [4]), in the assay with MOOVA (Monochoria) (setting [5]), with MOOVA (Monochoria) (setting [6]) and in the assay with MOOVA (Monochoria) (setting [7]) was 9.0 each time. Moreover, the CHEAL rating in assay [2] (0.0156 kg/ha) is listed as 5.0; in assay [2] (0.0313 kg/ha) it was 9.0; in assay [2] (0.0625 kg/ha) it was 9.0; in assay [2] (0.1250 kg/ha), 9.0; in assay [2] (0.2500 kg/ha), 9.0; in assay [2] (0.5000 kg/ha) it was 9.0. In addition, the CASOB herbicidal rating is recorded as 0.0 with CASOB (Sicklepod) (rate 0.0156 kg/ha), 0.0 in the assay on CASOB (Sicklepod) (rate 0.0313 kg/ha), 0.0 with CASOB (Sicklepod) (rate 0.0625 kg/ha) and 3.0 in the assay on CASOB (Sicklepod) (rate 0.1250 kg/ha). Besides, the ORYSAT rating in the assay with ORYSAT (Rice, Tebonnet) (0.0156 kg/ha) was determined as 0.0; in the assay on ORYSAT (Rice, Tebonnet) (0.0313 kg/ha), 0.0; in the assay on ORYSAT (Rice, Tebonnet) (0.0625 kg/ha), 0.0; in the assay on ORYSAT (Rice, Tebonnet) (0.1250 kg/ha), 0.0; with ORYSAT (Rice, Tebonnet) (0.2500 kg/ha), 3.0; with ORYSAT (Rice, Tebonnet) (0.5000 kg/ha) it was 9.0. In addition, the TRZAWR herbicidal rating in assay [3] (rate 0.0156 kg/ha) worked out at 3.0; in assay [3] (rate 0.0313 kg/ha), 3.5; in assay [3] (rate 0.0625 kg/ha) it was 4.5; in assay [3] (rate 0.1250 kg/ha) it was 5.0.
As for `C=CCN1C(=O)C(CC(=O)NS(=O)(=O)CC)SC1=Nc1cc(-n2c(=O)cc(C(F)(F)F)n(C)c2=O)c(F)cc1Cl` (stereo not shown) [Compound 104, 3-Allyl-2-{{2-chloro-5-[3,6-dihydro-3-methyl-2,6-dioxo-4-(trifluoromethyl)-1(2H)-pyrimidinyl]-4-fluorophenyl}imino}-N-(ethylsulfonyl)-4-oxo-5-thiazolidineacetamide], the “Herbicidal rating CHEAL” value in assay [1] (rate 0.0156 kg/ha) worked out at 0.0; in assay [1] (rate 0.0313 kg/ha) it was 2.0; in assay [1] (rate 0.0625 kg/ha), 4.0; in assay [1] (rate 0.1250 kg/ha) it was 5.0. In addition, the “Herbicidal rating MOOVA” value in the assay with MOOVA (Monochoria) (setting [4]) is recorded as 7.0; in the assay on MOOVA (Monochoria) (setting [5]), 9.0; in the assay on MOOVA (Monochoria) (setting [6]) it was 9.0; with MOOVA (Monochoria) (setting [7]) it was 9.0. Besides, the CHEAL rating is recorded as 0.0 in assay [2] (0.0625 kg/ha), 9.0 in assay [2] (0.1250 kg/ha), 9.0 in assay [2] (0.2500 kg/ha) and 9.0 in assay [2] (0.5000 kg/ha). Also, the “Herbicidal rating CASOB” value came out at 0.0 in the assay on CASOB (Sicklepod) (rate 0.0156 kg/ha), 0.0 in the assay on CASOB (Sicklepod) (rate 0.0313 kg/ha), 0.0 with CASOB (Sicklepod) (rate 0.0625 kg/ha) and 1.0 with CASOB (Sicklepod) (rate 0.1250 kg/ha). For the same molecule, the ORYSAT rating in the assay on ORYSAT (Rice, Tebonnet) (0.0625 kg/ha) is on record as 0.0; in the assay with ORYSAT (Rice, Tebonnet) (0.1250 kg/ha), 0.0; in the assay with ORYSAT (Rice, Tebonnet) (0.2500 kg/ha) it was 0.0; in the assay with ORYSAT (Rice, Tebonnet) (0.5000 kg/ha), 0.0. The “Herbicidal rating TRZAWR” value is reported as 3.0 in assay [3] (rate 0.0156 kg/ha), 3.0 in assay [3] (rate 0.0313 kg/ha), 4.0 in assay [3] (rate 0.0625 kg/ha) and 4.0 in assay [3] (rate 0.1250 kg/ha).
As for `CCOC(=O)CN1C(=O)C2(CC2)SC1=Nc1cc(-n2c(=O)cc(C(F)(F)F)n(C)c2=O)c(F)cc1Cl` [Compound 15, Ethyl 5-{{2-chloro-5-[3,6-dihydro-3-methyl-2,6-dioxo-4-(trifluoromethyl)-1(2H)-pyrimidinyl]-4-fluorophenyl}imino}-7-oxo-4-thia-6-azaspiro[2.4]-heptane-6-acetate], the CHEAL herbicidal rating turned out to be 3.0 in assay [1] (rate 0.0156 kg/ha), 3.0 in assay [1] (rate 0.0313 kg/ha), 9.0 in assay [1] (rate 0.0625 kg/ha) and 9.0 in assay [1] (rate 0.1250 kg/ha). Also, the “Herbicidal rating MOOVA” value in the assay with MOOVA (Monochoria) (setting [8]), in the assay with MOOVA (Monochoria) (setting [9]), in the assay on MOOVA (Monochoria) (setting [10]) and in the assay on MOOVA (Monochoria) (setting [11]) was 9.0 throughout. For the same molecule, the “CHEAL preemergence herbicidal rating” value is on record as 6.5 in assay [2] (rate 0.0156 kg/ha); 9.0 in assay [2] (rate 0.0313 kg/ha); 9.0 in assay [2] (rate 0.0625 kg/ha); 9.0 in assay [2] (rate 0.1250 kg/ha); 9.0 in assay [2] (rate 0.2500 kg/ha). Besides, the CASOB herbicidal rating with CASOB (Sicklepod) (rate 0.0156 kg/ha) was found to be 0.0; in the assay on CASOB (Sicklepod) (rate 0.0313 kg/ha), 0.0; with CASOB (Sicklepod) (rate 0.0625 kg/ha), 0.0; in the assay on CASOB (Sicklepod) (rate 0.1250 kg/ha) it was 4.0. The “ORYSAT preemergence herbicidal rating” value in the assay on ORYSAT (Rice, Tebonnet) (rate 0.0156 kg/ha) stood at 0.0; with ORYSAT (Rice, Tebonnet) (rate 0.0313 kg/ha), 0.0; in the assay with ORYSAT (Rice, Tebonnet) (rate 0.0625 kg/ha), 0.5; in the assay with ORYSAT (Rice, Tebonnet) (rate 0.1250 kg/ha), 1.0; with ORYSAT (Rice, Tebonnet) (rate 0.2500 kg/ha), 1.5. Moreover, the TRZAWR herbicidal rating in assay [3] (rate 0.0156 kg/ha) is given as 5.0; in assay [3] (rate 0.0313 kg/ha), 6.0; in assay [3] (rate 0.0625 kg/ha), 6.5; in assay [3] (rate 0.1250 kg/ha), 7.0.
Regarding `COC(=O)CCCN1C(=O)CSC1=Nc1cc(-n2c(=O)cc(C(F)(F)F)n(C)c2=O)c(F)cc1Cl` [Compound 29, Methyl 2-{{2-chloro-5-[3,6-dihydro-3-methyl-2,6-dioxo-4-(trifluoromethyl)-1(2H)-pyrimidinyl]-4-fluorophenyl}imino}-4-oxo-3-thiazolidinebutyrate], the “Postemergence herbicidal rating CHEAL” value in assay [1] (Rate 0.0158 kg/ha) came to 1.0; in assay [1] (Rate 0.0315 kg/ha), 1.0; in assay [1] (Rate 0.0630 kg/ha) it was 5.0. The “Herbicidal rating MOOVA” value with MOOVA (Monochoria) (setting [8]), in the assay on MOOVA (Monochoria) (setting [9]), in the assay with MOOVA (Monochoria) (setting [10]) and with MOOVA (Monochoria) (setting [11]) was 0.0 in each case. Moreover, the “Preemergence herbicidal rating CHEAL” value in assay [2] (rate 0.0625 kg/ha), in assay [2] (rate 0.1250 kg/ha) and in assay [2] (rate 0.2500 kg/ha) was 0.0 in each case. Further, the “Postemergence herbicidal rating CASOB” value with CASOB (Sicklepod) (Rate 0.0158 kg/ha), in the assay with CASOB (Sicklepod) (Rate 0.0315 kg/ha) and in the assay on CASOB (Sicklepod) (Rate 0.0630 kg/ha) was 0.0 throughout. In addition, the “Preemergence herbicidal rating ORYSAT” value amounted to 0.0 with ORYSAT (Rice, Tebonnet) (rate 0.0625 kg/ha); 0.0 with ORYSAT (Rice, Tebonnet) (rate 0.1250 kg/ha); 3.0 with ORYSAT (Rice, Tebonnet) (rate 0.2500 kg/ha). Also, the “Postemergence herbicidal rating TRZAWR” value in assay [3] (Rate 0.0158 kg/ha) was 4.5; in assay [3] (Rate 0.0315 kg/ha) it was 5.0; in assay [3] (Rate 0.0630 kg/ha), 5.5.
With `C#CCOC(=O)CC1SC(=Nc2cc(-n3c(=O)cc(C(F)(F)F)n(C)c3=O)c(F)cc2Cl)N(C)C1=O` (stereo not shown) [Compound 90, 2-Propynyl 2-{{2-chloro-5-[3,6-dihydro-3-methyl-2,6-dioxo-4-(trifluoromethyl)-1(2H)-pyrimidinyl]-4-fluorophenyl}imino}-3-methyl-4-oxo-5-thiazolidineacetate], the figures for the CHEAL herbicidal rating in assay [1] (rate 0.0158 kg/ha), in assay [1] (rate 0.0315 kg/ha) and in assay [1] (rate 0.0630 kg/ha) were 5.0, 7.0 and 9.0, respectively. For the same molecule, the “Herbicidal rating MOOVA” value in the assay on MOOVA (Monochoria) (setting [4]), with MOOVA (Monochoria) (setting [5]), in the assay on MOOVA (Monochoria) (setting [6]) and with MOOVA (Monochoria) (setting [7]) was 9.0 each time. For the same molecule, the CHEAL rating in assay [2] (0.0313 kg/ha) is given as 7.0; in assay [2] (0.0625 kg/ha), 9.0; in assay [2] (0.1250 kg/ha), 9.0; in assay [2] (0.2500 kg/ha), 9.0. For the same molecule, the CASOB herbicidal rating with CASOB (Sicklepod) (rate 0.0158 kg/ha) was found to be 2.0; in the assay on CASOB (Sicklepod) (rate 0.0315 kg/ha), 3.0; in the assay on CASOB (Sicklepod) (rate 0.0630 kg/ha) it was 4.0. Besides, the ORYSAT rating with ORYSAT (Rice, Tebonnet) (0.0313 kg/ha) was determined as 0.0; with ORYSAT (Rice, Tebonnet) (0.0625 kg/ha) it was 0.0; with ORYSAT (Rice, Tebonnet) (0.1250 kg/ha), 2.0; in the assay on ORYSAT (Rice, Tebonnet) (0.2500 kg/ha), 9.0. Further, the TRZAWR herbicidal rating is reported as 5.5 in assay [3] (rate 0.0158 kg/ha), 7.0 in assay [3] (rate 0.0315 kg/ha) and 7.5 in assay [3] (rate 0.0630 kg/ha).
